Reference: patent publication US9845319B2, “Amide substituted thiazoles as modulators of RORyt” (Janssen Pharmaceutica NV, priority 2014, dated 2017)

Tests used:
full-length human RORγt = target: T1, full-length human RORγt (Homo sapiens, UniProt P51449); assay: RORγt (full-length human) Reporter Assay, Conditions A; type: cell-based; conditions: for IC50: HEK293T cells, GAL4-DBD-RORγt, luciferase, read-out: RORγt (FL) Reporter Assay A, IC50; for inhibition at 6 µM: read-out: RORγt (FL) Reporter Assay A, % inhibition @ 6 μM, 6 μM compound; for inhibition at 0.67 µM: 0.67 μM compound concentration, read-out: RORγt (FL) Reporter Assay A, % inhibition (** at 0.67 μM)
T1 construct: expressed in transfected cells; host or cells: HEK293T, transiently transfected with pCMV-BD-ROR
T1 sequence (P51449 1-497 isoform P51449-2): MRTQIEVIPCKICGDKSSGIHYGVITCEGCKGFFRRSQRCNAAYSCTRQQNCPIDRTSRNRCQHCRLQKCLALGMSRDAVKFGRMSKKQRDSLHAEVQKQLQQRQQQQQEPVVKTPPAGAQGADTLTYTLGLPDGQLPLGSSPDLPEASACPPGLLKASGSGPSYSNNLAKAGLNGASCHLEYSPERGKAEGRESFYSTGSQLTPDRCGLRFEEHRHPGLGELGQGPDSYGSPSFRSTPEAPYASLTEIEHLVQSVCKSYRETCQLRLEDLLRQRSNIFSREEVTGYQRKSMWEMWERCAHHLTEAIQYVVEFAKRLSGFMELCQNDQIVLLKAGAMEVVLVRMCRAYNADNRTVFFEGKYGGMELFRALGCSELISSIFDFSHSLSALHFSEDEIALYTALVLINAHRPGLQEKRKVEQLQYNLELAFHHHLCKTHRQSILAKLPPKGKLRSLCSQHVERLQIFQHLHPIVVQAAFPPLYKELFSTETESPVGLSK
Description: After overnight (16 to 20 hours) incubation, media were removed and cells were lysed with 20 μL 1× Passive Lysis Buffer (Promega) for 10-15 minutes. Luminescence was measured using a BMG LUMIstar OPTIMA plate reader, after addition of 75 μL/well firefly luciferase buffer, followed by 75 μL/well Renilla luciferase buffer. To calculate the effect of compounds on RORγt activity, firefly values were normalized against values of DMSO only and values of reference compound at saturating concentration, then further normalized against Renilla signals. IC50s were generated by plotting final Renilla normalized data against compound concentration and percent inhibition was calculated against DMSO control.

[1] = target: T2, human RORγt ligand binding domain (RORγt LBD) (Homo sapiens, UniProt P51449); assay: RORγt ThermoFluor assay; conditions: estimated from thermal shift concentration response
T2 construct: His-tag (N); TurboTEV protease cleavage site (ENLYFQG) (N); made in house; host or cells: E. coli (pHIS1, a modified pET expression vector)
T2 sequence (P51449 with tags, fused parts or gaps): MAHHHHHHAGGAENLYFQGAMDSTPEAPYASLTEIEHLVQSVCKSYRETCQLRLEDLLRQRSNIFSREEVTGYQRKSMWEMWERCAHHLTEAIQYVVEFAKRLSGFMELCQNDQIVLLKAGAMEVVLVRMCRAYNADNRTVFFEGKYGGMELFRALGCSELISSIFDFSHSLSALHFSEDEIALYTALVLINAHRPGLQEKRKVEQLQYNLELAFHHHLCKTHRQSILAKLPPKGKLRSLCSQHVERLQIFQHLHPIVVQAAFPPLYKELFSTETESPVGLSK
Description: This approach is applicable to a wide variety of systems, and rigorous in theoretical interpretation through quantitation of equilibrium binding constants (KD).
The shift in the melting point described as a ΔTm is proportional to the concentration and affinity of the ligand.
Protein and compound solutions are dispensed into black 384-well polypropylene PCR microplates (Abgene) and overlayed with silicone oil (1 μL, Fluka, type DC 200) to prevent evaporation.
Bar-coded assay plates are robotically loaded onto a thermostatically controlled PCR-type thermal block and then heated at a typical ramp-rate of 1° C./min for all experiments.
Fluorescence was measured by continuous illumination with UV light (Hamamatsu LC6) supplied via fiber optic and filtered through a band-pass filter (380-400 nm; >6 OD cutoff). Fluorescence emission of the entire 384-well plate was detected by measuring light intensity using a CCD camera (Sensys, Roper Scientific) filtered to detect 500±25 nm, resulting in simultaneous and independent readings of all 384 wells. Images were collected at each temperature, and the sum of the pixel intensity in a given area of the assay plate was recorded versus temperature. Reference wells contained RORγt without compounds, and the assay conditions were as follows: • 0.065 mg/mL RORγt • 60 μM 1,8-ANS • 100 mM Hepes, pH 7.0 • 10 mM NaCl • 2.5 mM GSH • 0.002% Tween-20
Project compounds were arranged in a pre-dosed mother plate (Greiner Bio-one) wherein compounds are serially diluted in 100% DMSO by 1:2 from a high concentration of 10 mM over 12 columns within a series (column 12 is a reference well containing DMSO, no compound). The compounds were robotically dispensed directly into assay plates (1×=46 nL) using a Hummingbird capillary liquid handling instrument (Digilab). Following compound dispense, protein and dye in buffer was added to achieve the final assay volume of 3 μL, followed by 1 μL of silicone oil.

IC50 (full-length human RORγt) [nM]	inhibition at 6 µM (full-length human RORγt) [%]	Kd [1] [nM]	inhibition at 0.67 µM (full-length human RORγt) [%]	inhibition at 2 µM (full-length human RORγt; read-out: RORγt (FL) Reporter Assay A, % inhibition (* at 2 μM), 2 μM compound concentration (footnote *)) [%]	Structure (SMILES)
10	106	1	–	–	CC[C@H](NS(=O)(=O)c1ccc(-c2sc(-c3nnc(CC(C)(C)C#N)o3)nc2C(=O)N2CCC(F)CC2)c(Cl)c1Cl)C(F)(F)F [Example 1/1, (S)-2,3-Dichloro-4-(2-(5-(2-cyano-2-methylpropyl)-1,3,4-oxadiazol-2-yl)-4-(4-fluoropiperidine-1-carbonyl)thiazol-5-yl)-N-(1,1,1-trifluorobutan-2-yl)benzenesulfonamide]
4.5	–	0.7	103	–	C[C@H](NS(=O)(=O)c1ccc(-c2sc(-c3nnc(C4(C(F)(F)F)CC4)o3)nc2C(=O)N2CCC(F)(F)CC2)c(Cl)c1Cl)C(F)(F)F [Example 1/3, (S)-2,3-Dichloro-4-(4-(4,4-difluoropiperidine-1-carbonyl)-2-(5-(1-(trifluoromethyl)cyclopropyl)-1,3,4-oxadiazol-2-yl)thiazol-5-yl)-N-(1,1,1-trifluoropropan-2-yl)benzenesulfonamide]
100	104	0.003	–	–	CC[C@H](NS(=O)(=O)c1ccc(-c2sc(-c3nnc(CC(C)(C)C(=O)O)o3)nc2C(=O)N2CCCC[C@@H]2C)c(Cl)c1Cl)C(F)(F)F [Example 2, 3-(5-(5-(2,3-Dichloro-4-(N—((S)-1,1,1-trifluorobutan-2-yl)sulfamoyl)phenyl)-4-((S)-2-methylpiperidine-1-carbonyl)thiazol-2-yl)-1,3,4-oxadiazol-2-yl)-2,2-dimethylpropanoic acid]
230	102	0.98	–	–	C[C@H]1CCCCN1C(=O)c1nc(-c2nnc(CC(C)(C)C(=O)O)o2)sc1-c1ccc(C(O)(C(F)(F)F)C(F)(F)F)c(Cl)c1Cl [Example 2/1, (S)-3-(5-(5-(2,3-Dichloro-4-(1,1,1,3,3,3-hexafluoro-2-hydroxypropan-2-yl)phenyl)-4-(2-methylpiperidine-1-carbonyl)thiazol-2-yl)-1,3,4-oxadiazol-2-yl)-2,2-dimethylpropanoic acid]
9	104	–	–	–	CC[C@H](NS(=O)(=O)c1ccc(-c2sc(-c3noc(CC(C)(C)C(=O)O)n3)nc2C(=O)N2CCCC[C@@H]2C)c(Cl)c1Cl)C(F)(F)F [Example 10, 3-(3-(5-(2,3-Dichloro-4-(N—((S)-1,1,1-trifluorobutan-2-yl)sulfamoyl)phenyl)-4-((S)-2-methylpiperidine-1-carbonyl)thiazol-2-yl)-1,2,4-oxadiazol-5-yl)-2,2-dimethylpropanoic acid]
–	–	17	–	–	C[C@H]1CCCN1C(=O)c1nc(-c2nnc(C(C)(C)O)o2)sc1-c1ccc(C(O)(C(F)(F)F)C(F)(F)F)cc1C(F)F [Example 29, (S)-(5-(2-(difluoromethyl)-4-(1,1,1,3,3,3-hexafluoro-2-hydroxypropan-2-yl)phenyl)-2-(5-(2-hydroxypropan-2-yl)-1,3,4-oxadiazol-2-yl)thiazol-4-yl)(2-methylpyrrolidin-1-yl)methanone]

Further lines, the molecule ahead of its results:

Structure (SMILES)	IC50 (full-length human RORγt) [nM]	inhibition at 6 µM (full-length human RORγt) [%]	Kd [1] [nM]	inhibition at 0.67 µM (full-length human RORγt) [%]	inhibition at 2 µM (full-length human RORγt; read-out: RORγt (FL) Reporter Assay A, % inhibition (* at 2 μM), 2 μM compound concentration (footnote *)) [%]
COC1(c2nnc(-c3nc(C(=O)N4CCC(F)(F)CC4)c(-c4ccc(S(=O)(=O)N[C@@H](C)C(F)(F)F)c(Cl)c4Cl)s3)o2)CC1 [Example 1/2, (S)-2,3-Dichloro-4-(4-(4,4-difluoropiperidine-1-carbonyl)-2-(5-(1-methoxycyclopropyl)-1,3,4-oxadiazol-2-yl)thiazol-5-yl)-N-(1,1,1-trifluoropropan-2-yl)benzenesulfonamide]	11	–	0.42	105	–
C[C@H](NS(=O)(=O)c1ccc(-c2sc(-c3nnc(CS(C)(=O)=O)o3)nc2C(=O)N2CCC(F)(F)CC2)c(Cl)c1Cl)C(F)(F)F [Example 1/4, (S)-2,3-Dichloro-4-(4-(4,4-difluoropiperidine-1-carbonyl)-2-(5-((methylsulfonyl)methyl)-1,3,4-oxadiazol-2-yl)thiazol-5-yl)-N-(1,1,1-trifluoropropan-2-yl)benzenesulfonamide]	55	101	4.7	–	–
CC[C@H](NS(=O)(=O)c1ccc(-c2sc(-c3nnc(C(C)(C)O)o3)nc2C(=O)N2CCC(F)CC2)c(Cl)c1Cl)C(F)(F)F [Example 6/1, (S)-2,3-Dichloro-4-(4-(4-fluoropiperidine-1-carbonyl)-2-(5-(2-hydroxypropan-2-yl)-1,3,4-oxadiazol-2-yl)thiazol-5-yl)-N-(1,1,1-trifluorobutan-2-yl)benzenesulfonamide]	–	–	–	–	102
CC[C@H](NS(=O)(=O)c1ccc(-c2sc(-c3noc(CC(C)(C)C(=O)O)n3)nc2C(=O)N2CCCC[C@@H]2C)c(C(F)F)c1Cl)C(F)(F)F [Example 10/4, 3-(3-(5-(3-Chloro-2-(difluoromethyl)-4-(N—((S)-1,1,1-trifluorobutan-2-yl)sulfamoyl)phenyl)-4-((S)-2-methylpiperidine-1-carbonyl)thiazol-2-yl)-1,2,4-oxadiazol-5-yl)-2,2-dimethylpropanoic acid]	33	99	–	–	–
CC(C)(O)c1nnc(-c2nc(C(=O)N3CCC(F)(F)CC3)c(-c3ccc(C(O)(C(F)(F)F)C(F)(F)F)cc3C(F)F)s2)o1 [Example 28, (5-(2-(difluoromethyl)-4-(1,1,1,3,3,3-hexafluoro-2-hydroxypropan-2-yl)phenyl)-2-(5-(2-hydroxypropan-2-yl)-1,3,4-oxadiazol-2-yl)thiazol-4-yl)(4,4-difluoropiperidin-1-yl)methanone]	–	–	5.5	–	–
C[C@H]1CCCN1C(=O)c1nc(-c2noc(C(C)(C)O)n2)sc1-c1ccc(C(O)(C(F)(F)F)C(F)(F)F)cc1C(F)F [Example 30, (S)-(5-(2-(difluoromethyl)-4-(1,1,1,3,3,3-hexafluoro-2-hydroxypropan-2-yl)phenyl)-2-(5-(2-hydroxypropan-2-yl)-1,2,4-oxadiazol-3-yl)thiazol-4-yl)(2-methylpyrrolidin-1-yl)methanone]	–	–	22	–	–
Cc1cc(C(O)(C(F)(F)F)C(F)(F)F)ccc1-c1sc(-c2nnc(C(C)(C)O)o2)nc1C(=O)N1CCC[C@@H]1C [Example 31, (S)-(5-(4-(1,1,1,3,3,3-hexafluoro-2-hydroxypropan-2-yl)-2-methylphenyl)-2-(5-(2-hydroxypropan-2-yl)-1,3,4-oxadiazol-2-yl)thiazol-4-yl)(2-methylpyrrolidin-1-yl)methanone]	–	–	18	–	–
Cc1cc(C(O)(C(F)(F)F)C(F)(F)F)ccc1-c1sc(-c2noc(C(C)(C)O)n2)nc1C(=O)N1CCC[C@@H]1C [Example 32, (S)-(5-(4-(1,1,1,3,3,3-hexafluoro-2-hydroxypropan-2-yl)-2-methylphenyl)-2-(5-(2-hydroxypropan-2-yl)-1,2,4-oxadiazol-3-yl)thiazol-4-yl)(2-methylpyrrolidin-1-yl)methanone]	–	–	27	–	–
